Test results reported in patent US10975287B2, “Heterocyclic amides useful as protein modulators” (GlaxoSmithKline Intellectual Property Development Limited, priority 2017, dated 2021).
Read-outs that look alike come from different tables or passages of the source.

Tests used:
Full-length human STING = tested on: T1, Full-length human STING; format: cell-based
T1 construct: Full-length human STING (Gene ID 340061); expressed in transfected cells; host or cells: HEK293T
Experimental: Functional Assay III (HEX WT agonist assay): Activation of STING in cells may be determined using a luciferase reporter assay in human embryonic kidney cells (HEK293T) co-transfected with plasmids expressing STING and the enzyme firefly luciferase driven by the interferon stimulated response element promoter (pISRE-Luc) (Agilent Technologies). […] Transfections were prepared using a cell suspension with Fugene® 6 following the manufacturer's instructions (3:1 Fugene®:DNA). […] of the transfection suspension was dispensed into wells of a 384-well plate containing 250 nL of a compound of Formula (I). […] Control wells expected to generate maximal activation of STING were cotransfected with a cGAS expression plasmid. Plates were sealed and incubated for 24 hours at 37° C. The expression of firefly luciferase was processed using Steady-Glo® luciferase assay system (Promega) and was analyzed using a standard laboratory luminescence plate reader. Data was normalized to luminescence response in the presence of cGAS, was plotted as a function of compound concentration, and fit using a standard model of receptor activation to derive the pEC50.

[1] = tested on: C-terminal Domain (CTD) of human STING; details: 500 pM STING, 100 nM Alexa488 probe, 15 min at room temperature
[2] = HEK293T co-transfected with STING and pISRE-Luc, 24 hours at 37° C., normalized to cGAS response

SMILES	HEK assay (pEC50) (Full-length human STING; [2])	FRET assay (pIC50) [1]	HEK assay (pEC50) (Full-length human STING)
CCn1nc(C)cc1C(=O)Nc1nc2cc(C(N)=O)ccc2n1C [Example 1, 2-(1-ethyl-3-methyl-1H-pyrazole-5-carboxamido)-1-methyl-1H-benzo[d]imidazole-5-carboxamide]	4.4	4.4	–
C=CCn1c(NC(=O)c2cc(C)nn2CC)nc2cc(C(N)=O)ccc21 [Example 2, 1-allyl-2-(1-ethyl-3-methyl-1H-pyrazole-5-carboxamido)-1H-benzo[d]imidazole-5-carboxamide]	4.5	4.6	–
CCCn1c(NC(=O)c2cc(C)nn2CC)nc2cc(C(N)=O)cc(OC)c21 [Example 3, 2-(1-ethyl-3-methyl-1H-pyrazole-5-carboxamido)-7-methoxy-1-propyl-1H-benzo[d]imidazole-5-carboxamide]	6	5.5	–
C=CCn1c(NC(=O)c2cc(C)nn2CC)nc2cc(C(N)=O)cc(OCCCO)c21 [Example 4, 1-Allyl-2-(1-ethyl-3-methyl-1H-pyrazole-5-carboxamido)-7-(3-hydroxypropoxy)-1H-benzoylimidazole-5-carboxamide]	4.5	4.9	–
CCn1nc(C)cc1C(=O)Nc1nc2cc(C(N)=O)cc(OC)c2n1CCCN1CCOCC1 [Example 9, 2-(1-ethyl-3-methyl-1H-pyrazole-5-carboxamido)-7-methoxy-1-(3-morpholinopropyl)-1H-benzo[d]imidazole-5-carboxamide]	5.1	5.1	–
CCCn1c(NC(=O)c2cc(C)nn2CC)nc2cc(C(N)=O)cc(OCCCO)c21 [Example 13, 2-(1-ethyl-3-methyl-1H-pyrazole-5-carboxamido)-7-(3-hydroxypropoxy)-1-propyl-1H-benzo-[d]imidazole-5-carboxamide]	5.4	–	–
C=CCn1c(NC(=O)c2cc(C)nn2CC)nc2cc(C(N)=O)cc(OC)c21 [Example 14, 1-allyl-2-(1-ethyl-3-methyl-1H-pyrazole-5-carboxamido)-7-methoxy-1H-benzo[d]imidazole-5-carboxamide]	5.6	<3.9	–
CCn1nc(C)cc1C(=O)Nc1nc2cc(C(N)=O)cc(OC)c2n1CCCCNC(=O)OC(C)(C)C [Example 17, tert-butyl (4-(5-carbamoyl-2-(1-ethyl-3-methyl-1H-pyrazole-5-carboxamido)-7-methoxy-1H-benzo[d]imidazol-1-yl)butyl)carbamate]	6.1	–	–
CCCCn1c(NC(=O)c2cc(C)nn2CC)nc2cc(C(N)=O)cc(OC)c21 [Example 24, 1-butyl-2-(1-ethyl-3-methyl-1H-pyrazole-5-carboxamido)-7-methoxy-1H-benzo[d]imidazole-5-carboxamide]	6.0	–	–
CCn1nc(C)cc1C(=O)Nc1nc2cc(C(N)=O)cc(OC)c2n1CCC(C)C [Example 27, (1-ethyl-3-methyl-1H-pyrazole-5-carboxamido)-1-isopentyl-7-methoxy-1H-benzo[d]imidazole-5-carboxamide]	5.5	–	–
CCCn1c(NC(=O)c2cc(C)nn2CC)nc2c(OC)c(C(N)=O)ccc21 [Example 30, 2-(1-ethyl-3-methyl-1H-pyrazole-5-carboxamido)-4-methoxy-1-propyl-1H-benzo[d]imidazole-5-carboxamide]	–	5.0	–
CCn1nc(C)cc1C(=O)Nc1nc2cc(C(N)=O)cc(OC(C)C)c2n1CCCN1CCOCC1 [Example 37, 2-(1-ethyl-3-methyl-1H-pyrazole-5-carboxamido)-7-isopropoxy-1-(3-morpholinopropyl)-1H-benzo[d]imidazole-5-carboxamide]	–	5.5	–
CCCn1c(NC(=O)c2cc(C)nn2CC)nc2cc(C(N)=O)cc(CN3CCOCC3)c21 [Example 41, 2-(1-ethyl-3-methyl-1H-pyrazole-5-carboxamido)-7-(morpholinomethyl)-1-propyl-1H-benzoylimidazole-5-carboxamide]	–	5.4	–
CCn1nc(C)cc1C(=O)Nc1nc2cc(C(N)=O)cc(OC)c2n1CCCc1cccnc1 [Example 50, 2-(1-ethyl-3-methyl-1H-pyrazole-5-carboxamido)-7-methoxy-1-(3-(pyridin-3-yl)propyl)-1H-benzoylimidazole-5-carboxamide]	–	5.3	–
CCn1nc(C)cc1C(=O)Nc1nc2cc(C(N)=O)cc(OC)c2n1CCCNC(=O)OCc1ccccc1 [Example 53, benzyl (3-(5-carbamoyl-2-(1-ethyl-3-methyl-1H-pyrazole-5-carboxamido)-7-methoxy-1H-benzo[d]imidazol-1-yl)propyl)carbamate]	–	–	6.2
CCCn1c(NC(=O)c2cc(CC)nn2CC)nc2cc(C(N)=O)cc(OC)c21 [Example 57, 2-(1,3-diethyl-1H-pyrazole-5-carboxamido)-7-methoxy-1-propyl-1H-benzo[d]imidazole-5-carboxamide]	5.5	–	–
